According to PMC7424068, “Design, Synthesis, and Biological Evaluation of Novel Thiazolidinone-Containing Quinoxaline-1,4-di-N-oxides as Antimycobacterial and Antifungal Agents” (Frontiers in Chemistry, 2020):
≈ marks a conversion by molar mass, not a printed value. Where two headings read alike, the source gives them in different places.

Assays:
Mtb H37Rv (ATCC27294) = test: Antimycobacterial activity, microplate Alamar blue assay (MABA); assay type: cell-based, Mycobacterium tuberculosis; conditions: for antimycobacterial activity (in words): Mtb strain H37Rv; for MIC: Mycobacterium tuberculosis, Mtb H37Rv
VERO cell line = test: Cytotoxicity MTT assay; assay type: cell-based; conditions: Chlorocebus sabaeus, cytotoxicity in VERO cells, 72 h
Method: VERO cells (2 × 10^4 cells) were seeded into 96-well plates and incubated for 12 h. Serial dilutions of the compounds were mixed with the cell suspension in the plates. Both treated cells and blank and solvent controls were incubated for 72 h, followed by incubation with MTT (0.5 mg/mL) for another 4 h. The microplates were measured at 570 nm using a multimode reader (Infinite M200, Tecan). The percentage of viable cells was calculated as the mean with respect to the controls set to 100%. Triplicate wells were analyzed for each concentration. IC50 was defined as the concentration that reduced the viable cells by 50% compared to the untreated control cells. It was considered significant when the SI was more than 10.

C. albicans (ATCC90028) = test: Antifungal activity, broth microdilution; assay type: cell-based, Candida albicans
Method: (§1) All synthesized compounds and the positive control drugs amphotericin B and ketoconazole were tested for their in vitro antifungal activity. Antifungal activity was evaluated against four fungi, C. albicans (ATCC90028), C. tropicalis (ATCC7349), A. fumigatus (3.5352), and C. neoformans (2.3201), by broth microdilution according to the protocols from the NCCLS (Jiang et al., [2014]). Briefly, all tested compounds were dissolved in DMSO, and the solutions were diluted with fresh broth medium. All of the fungi-seeded broth (1 × 10^5 colony-forming units [CFU]/mL) were prepared in RPMI 1640 medium and added into the serially diluted drug solution. The tubes were incubated at 28°C, and the MIC (μg/mL) was recorded 72–96 h post-incubation. Broth control (without fungi), growth controls (with fungi and without drug), solvent (DMSO) control, and drug control for both test drugs and standard drugs were set under identical conditions. The minimum drug concentration in the tubes in which no apparent growth of the organism was observed represented the MIC of the compounds.

A. fumigatus (3.5352) = test: Antifungal activity, broth microdilution; assay type: cell-based; conditions: Aspergillus fumigatus
Method: as §1

C. neoformans (2.3201) = test: Antifungal activity, broth microdilution; assay type: cell-based; conditions: Cryptococcus neoformans
Method: as §1

C. tropicalis (ATCC7349) = test: Antifungal activity, broth microdilution; assay type: cell-based; conditions: Candida tropicalis
Method: as §1

[1] = test system: TB-infected macrophage model; test: Macrophage assay (TB-infected macrophage model); assay type: cell-based, Mycobacterium tuberculosis; conditions: for EC90: Mycobacterium tuberculosis, Macrophage, 168 h, concentration causing 90% reduction in residual mycobacterial growth after 7 days; for EC99: concentration causing 99% reduction in residual mycobacterial growth after 7 days
[2] = test system: Candida albicans, Candida tropicalis, Aspergillus fumigatus, and Cryptococcus neoformans; test: Antifungal activity, broth microdilution, stated for the four fungi together; assay type: cell-based; conditions: read-out: MIC (antifungal, over the four fungi)
Method: as §1

[3] = test system: M. tuberculosis (Mtb) strain H37Rv; design: method as in Ortega et al., 2001; Vicente et al., 2009; conditions: ref Ortega et al., 2001, Vicente et al., 2009; cited from earlier work
[4] = repeated in Table 5 for the 3D-QSAR models, read-out: MIC
[5] = experimental pMIC, Table 5, read-out: pMIC exp (converted)
[6] = Candida albicans ATCC 90028, read-out: MIC
[7] = A. fumigatus 3.5352, read-out: MIC
[8] = C. neoformans 2.3201, read-out: MIC
[9] = C. tropicalis ATCC 7349, read-out: MIC
[10] = C. albicans, C. tropicalis, A. fumigatus, C. neoformans together

Row | SMILES | antimycobacterial activity (in words) (Mtb H37Rv (ATCC27294)) | MIC (Mtb H37Rv (ATCC27294); MABA assay, read-out: MIC) | MIC (Mtb H37Rv (ATCC27294); [4]) | MIC (Mtb H37Rv (ATCC27294); [5]) | IC50 (VERO cell line) | MIC (C. albicans (ATCC90028); [6]) | MIC (A. fumigatus (3.5352); [7]) | MIC (C. neoformans (2.3201); [8]) | MIC (C. tropicalis (ATCC7349); [9]) | melting point | EC90 [1] | EC99 [1] | MIC [2, 10] | MIC [3] | MIC (C. albicans (ATCC90028); Candida albicans) | MIC (A. fumigatus (3.5352)) | MIC (C. neoformans (2.3201)) | MIC (C. tropicalis (ATCC7349)) | MIC [2]
1 | O=C1CSC(c2c[n+]([O-])c3ccccc3[n+]2[O-])N1c1ccccc1 (centres unmarked) [2a, 2-(3′-phenyl-4′(5H)-thiazolidinone)-quinoxaline-1,4-di-N-oxide] | good antimycobacterial activity | 6.25 µg/mL | 6.25 µg/mL | 18.5 µM | 144 µg/mL (≈ 423 µM) | 16 µg/mL (≈ 47.1 µM) | 32 µg/mL (≈ 94.3 µM) | 16 µg/mL (≈ 47.1 µM) | 8 µg/mL (≈ 23.6 µM) | 245 to 248 °C | – | – | – | – | – | – | – | – | –
2 | O=C1CSC(c2c[n+]([O-])c3ccccc3[n+]2[O-])N1c1ccc(F)cc1 (centres unmarked) [2d, 2-(3′-P-fluorophenyl-4′(5H)-thiazolidinone)-quinoxaline-1,4-di-N-oxide] | good antimycobacterial activity | 3.13 µg/mL | 3.13 µg/mL | 8.77 µM | 123 µg/mL (≈ 344 µM) | 16 µg/mL (≈ 44.8 µM) | 32 µg/mL (≈ 89.5 µM) | 8 µg/mL (≈ 22.4 µM) | 8 µg/mL (≈ 22.4 µM) | 240 to 242 °C | – | – | – | – | – | – | – | – | –
3 | O=C1CSC(c2c[n+]([O-])c3ccccc3[n+]2[O-])N1c1ccc(Cl)cc1 (centres unmarked) [2e, 2-(3′-P-chlorophenyl-4′(5H)-thiazolidinone)-quinoxaline-1,4-di-N-oxide] | good antimycobacterial activity | ≤ 3.13 µg/mL | 3.13 µg/mL | 8.39 µM | 116 µg/mL (≈ 310 µM) | 8 µg/mL (≈ 21.4 µM) | 32 µg/mL (≈ 85.6 µM) | 16 µg/mL (≈ 42.8 µM) | 8 µg/mL (≈ 21.4 µM) | 249 to 252 °C | – | – | – | – | – | – | – | – | –
4 | Cc1ccc2c(c1)[n+]([O-])c(C1SCC(=O)N1c1ccc(F)cc1)c[n+]2[O-] (centres unmarked) [2j, 7-CH3-2-(3′-P-fluorophenyl-4′(5H)-thiazolidinone)-quinoxaline-1,4-di-N-oxide] | good antimycobacterial activity | 6.25 µg/mL | 6.25 µg/mL | 16.9 µM | 114 µg/mL (≈ 306 µM) | 16 µg/mL (≈ 43.1 µM) | 32 µg/mL (≈ 86.2 µM) | 16 µg/mL (≈ 43.1 µM) | 8 µg/mL (≈ 21.5 µM) | 243 to 245 °C | – | – | – | – | – | – | – | – | –
5 | Cc1ccc2c(c1)[n+]([O-])c(C1SCC(=O)N1c1ccc(Cl)cc1)c[n+]2[O-] (centres unmarked) [2k, 7-CH3-2-(3′-P-chlorophenyl-4′(5H)-thiazolidinone)-quinoxaline-1,4-di-N-oxide] | good antimycobacterial activity | ≤ 3.13 µg/mL | 3.13 µg/mL | 8.09 µM | 102 µg/mL (≈ 264 µM) | 32 µg/mL (≈ 82.5 µM) | 32 µg/mL (≈ 82.5 µM) | 32 µg/mL (≈ 82.5 µM) | 16 µg/mL (≈ 41.3 µM) | 244 to 248 °C | – | – | – | – | – | – | – | – | –
6 | O=C1CSC(c2c[n+]([O-])c3ccc(F)cc3[n+]2[O-])N1c1ccccc1 (centres unmarked) [2q, 7-F-2-(3′-phenyl-4′(5H)-thiazolidinone)-quinoxaline-1,4-di-N-oxide] | – | 6.25 µg/mL | 6.25 µg/mL | 17.5 µM | 126 µg/mL (≈ 354 µM) | 8 µg/mL (≈ 22.4 µM) | 16 µg/mL (≈ 44.8 µM) | 16 µg/mL (≈ 44.8 µM) | 4 µg/mL (≈ 11.2 µM) | 249 to 252 °C | – | – | – | – | – | – | – | – | –
7 | O=C1CSC(c2c[n+]([O-])c3ccc(F)cc3[n+]2[O-])N1c1ccc(F)cc1 (centres unmarked) [2t, 7-F-2-(3′-P-fluorophenyl-4′(5H)-thiazolidinone)-quinoxaline-1,4-di-N-oxide] | good antimycobacterial activity | 1.56 µg/mL | 1.56 µg/mL | 4.16 µM | 101 µg/mL (≈ 269 µM) | 4 µg/mL (≈ 10.7 µM) | 4 µg/mL (≈ 10.7 µM) | 4 µg/mL (≈ 10.7 µM) | 2 µg/mL (≈ 5.33 µM) | 250 to 253 °C | 1.66 µg/mL (≈ 4.42 µM) | 5.25 µg/mL | 2 to 4 µg/mL (≈ 5.33 to 10.7 µM) | – | – | – | – | – | –
8 | O=C1CSC(c2c[n+]([O-])c3ccc(F)cc3[n+]2[O-])N1c1ccc(Cl)cc1 (centres unmarked) [2u, 7-F-2-(3′-P-chlorophenyl-4′(5H)-thiazolidinone)-quinoxaline-1,4-di-N-oxide] | good antimycobacterial activity | – | 1.56 µg/mL | 3.99 µM | 91.2 µg/mL (≈ 233 µM) | 4 µg/mL (≈ 10.2 µM) | 2 µg/mL (≈ 5.1 µM) | 4 µg/mL (≈ 10.2 µM) | 4 µg/mL (≈ 10.2 µM) | 249 to 252 °C | 0.84 µg/mL (≈ 2.14 µM) | 3.27 µg/mL | 2 to 4 µg/mL (≈ 5.1 to 10.2 µM) | – | – | – | – | – | –
9 | O=C1CSC(c2c[n+]([O-])c3ccc(Cl)cc3[n+]2[O-])N1c1ccccc1 (centres unmarked) [2v, 7-Cl-2-(3′-phenyl-4′(5H)-thiazolidinone)-quinoxaline-1,4-di-N-oxide] | – | ≤ 3.13 µg/mL | 3.13 µg/mL | 8.39 µM | 119 µg/mL (≈ 318 µM) | 8 µg/mL (≈ 21.4 µM) | 4 µg/mL (≈ 10.7 µM) | 8 µg/mL (≈ 21.4 µM) | 8 µg/mL (≈ 21.4 µM) | 248 to 250 °C | – | – | – | – | – | – | – | – | –
10 | Cc1ccc(N2C(=O)CSC2c2c[n+]([O-])c3ccc(Cl)cc3[n+]2[O-])cc1 (centres unmarked) [2w, 7-Cl-2-(3′-P-methylphenyl-4′(5H)-thiazolidinone)-quinoxaline-1,4-di-N-oxide] | – | 6.25 µg/mL | 6.25 µg/mL | 16.1 µM | 125 µg/mL (≈ 323 µM) | 8 µg/mL (≈ 20.6 µM) | 8 µg/mL (≈ 20.6 µM) | 4 µg/mL (≈ 10.3 µM) | 4 µg/mL (≈ 10.3 µM) | 250 to 252 °C | – | – | – | – | – | – | – | – | –
11 | O=C1CSC(c2c[n+]([O-])c3ccc(Cl)cc3[n+]2[O-])N1c1ccc(F)cc1 (centres unmarked) [2y, 7-Cl-2-(3′-P-fluorophenyl-4′(5H)-thiazolidinone)-quinoxaline-1,4-di-N-oxide] | good antimycobacterial activity | – | 1.56 µg/mL | 3.99 µM | 107 µg/mL (≈ 273 µM) | 2 µg/mL (≈ 5.1 µM) | 4 µg/mL (≈ 10.2 µM) | 2 µg/mL (≈ 5.1 µM) | 4 µg/mL (≈ 10.2 µM) | 251 to 253 °C | 1.33 µg/mL (≈ 3.39 µM) | 4.58 µg/mL | 2 to 4 µg/mL (≈ 5.1 to 10.2 µM) | – | – | – | – | – | –
12 | O=C1CSC(c2c[n+]([O-])c3ccc(Cl)cc3[n+]2[O-])N1c1ccc(Cl)cc1 (centres unmarked) [2z, 7-Cl-2-(3′-P-chlorophenyl-4′(5H)-thiazolidinone)-quinoxaline-1,4-di-N-oxide] | good antimycobacterial activity | – | 1.56 µg/mL | 3.85 µM | 94.6 µg/mL (≈ 232 µM) | 4 µg/mL (≈ 9.8 µM) | 4 µg/mL (≈ 9.8 µM) | 4 µg/mL (≈ 9.8 µM) | 4 µg/mL (≈ 9.8 µM) | 252 to 255 °C | 0.92 µg/mL (≈ 2.25 µM) | 3.93 µg/mL | 2 to 4 µg/mL (≈ 4.9 to 9.8 µM) | – | – | – | – | – | –
13 | Cc1ccc2c(c1)[n+]([O-])c(C#N)c(-c1ccc(F)cc1)[n+]2[O-] [7-methyl-3-(4′-fluoro)phenylquinoxaline-2-carbonitrile-1,4-di-N-oxide] | – | – | – | – | – | – | – | – | – | – | – | – | – | < 0.2 µg/mL | – | – | – | – | –
14 | C[C@@H]1[C@H](O)[C@@H](C)/C=C/C=C/C=C/C=C/C=C/C=C/C=C/[C@H](O[C@@H]2O[C@H](C)[C@@H](O)[C@H](N)[C@@H]2O)C[C@@H]2O[C@](O)(C[C@@H](O)C[C@@H](O)[C@H](O)CC[C@@H](O)C[C@@H](O)CC(=O)O[C@H]1C)C[C@H](O)[C@H]2C(=O)O [AMB, Amphotericin b, reference compound] | – | – | – | – | – | 1 µg/mL (≈ 1.08 µM) | 0.5 µg/mL (≈ 0.541 µM) | 0.5 µg/mL (≈ 0.541 µM) | 2 µg/mL (≈ 2.16 µM) | – | – | – | 0.25 to 2 µg/mL (≈ 0.271 to 2.16 µM) | – | – | – | – | – | –
15 | CC(=O)N1CCN(c2ccc(OCC3COC(Cn4ccnc4)(c4ccc(Cl)cc4Cl)O3)cc2)CC1 (centres unmarked) [KCZ, Ketoconazole, reference compound] | – | – | – | – | – | – | – | – | – | – | – | – | – | – | 0.25 µg/mL (≈ 0.47 µM) | 0.5 µg/mL (≈ 0.941 µM) | 0.25 µg/mL (≈ 0.47 µM) | 0.5 µg/mL (≈ 0.941 µM) | 0.25 to 2 µg/mL (≈ 0.47 to 3.76 µM)
